# Data from ChEMBL document CHEMBL1201861, “Genomics of Drug Sensitity in Cancer screening data, Wellcome Trust Sanger Institute”.
# Assays:
# Assay in all cases: cells
# IST-MEL1 = type: functional, cell-based, Homo sapiens; conditions: Homo sapiens, IST-MEL1;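 note: growth inhibition of the cell line, read out with a cell viability assay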
# Description: SANGER: Inhibition of human IST-MEL1 cell growth in a cell viability assay.
# LB996-RCC = type: functional, cell-based, Homo sapiens; conditions: Homo sapiens, LB996-RCC
# Description: SANGER: Inhibition of human LB996-RCC cell growth in a cell viability assay.
# U-87 MG = type: functional, cell-based, Homo sapiens, U-87MG ATCC; conditions: Homo sapiens, U-87 MG;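 note: growth inhibition of the cells measured with a viability assay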
# Description: SANGER: Inhibition of human U-87-MG cell growth in a cell viability assay.
# BB30-HNC = type: functional, cell-based, Homo sapiens; conditions: Homo sapiens, BB30-HNC;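 note: growth inhibition of the cultured cell line, read out by a cell viability assay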
# Description: SANGER: Inhibition of human BB30-HNC cell growth in a cell viability assay.
# KARPAS-299 = type: functional, cell-based, Homo sapiens; conditions: Homo sapiens, KARPAS-299
# Description: SANGER: Inhibition of human KARPAS-299 cell growth in a cell viability assay.
# LB831-BLC = type: functional, cell-based, Homo sapiens; conditions: Homo sapiens, LB831-BLC;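 note: growth inhibition of LB831-BLC cells, read out with a cell viability assay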
# Description: SANGER: Inhibition of human LB831-BLC cell growth in a cell viability assay.
# LB771-HNC = type: functional, cell-based; conditions: Homo sapiens;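 note: growth inhibition of LB771-HNC human cells, read out with a cell viability assay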
# Description: SANGER: Inhibition of human LB771-HNC cell growth in a cell viability assay.
# MSTO-211H = type: functional, cell-based, Homo sapiens; conditions: Homo sapiens, MSTO-211H
# Description: SANGER: Inhibition of human MSTO-211H cell growth in a cell viability assay.
# RH-1 = type: functional, cell-based, Homo sapiens; conditions: Homo sapiens, RH-1;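 note: growth inhibition of human RH-1 cells, read out with a cell viability assay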
# Description: SANGER: Inhibition of human RH-1 cell growth in a cell viability assay.
# Becker = type: functional, cell-based, Homo sapiens; conditions: Homo sapiens, Becker;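 note: growth inhibition of Becker cells, read out with a cell viability assay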
# Description: SANGER: Inhibition of human Becker cell growth in a cell viability assay.
# ACN = type: functional, cell-based, Homo sapiens; conditions: Homo sapiens, ACN;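 note: growth inhibition of the human ACN cell line, read out via cell viability testing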
# Description: SANGER: Inhibition of human ACN cell growth in a cell viability assay.
# LAMA-84 = type: functional, cell-based, Homo sapiens; conditions: Homo sapiens, LAMA-84;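 note: growth inhibition of LAMA-84 cells, read out with a cell viability assay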
# Description: SANGER: Inhibition of human LAMA-84 cell growth in a cell viability assay.
# SCH = type: functional, cell-based, Homo sapiens; conditions: Homo sapiens, SCH;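 note: growth inhibition of human SCH cells, read out in a cell viability assay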
# Description: SANGER: Inhibition of human SCH cell growth in a cell viability assay.
# KALS-1 = type: functional, cell-based, Homo sapiens; conditions: Homo sapiens, KALS-1; read-out: IC50;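 note: growth inhibition of KALS-1 cells, determined with a cell viability assay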
# Description: SANGER: Inhibition of human KALS-1 cell growth in a cell viability assay.
# ES1 = type: functional, cell-based, Homo sapiens; conditions: Homo sapiens, ES1;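 note: growth inhibition of ES1 cells, read out with a cell viability assay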
# Description: SANGER: Inhibition of human ES1 cell growth in a cell viability assay.
# A101D = type: functional, cell-based, Homo sapiens; conditions: Homo sapiens, A101D;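 note: growth inhibition of the cell line, measured with a viability assay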
# Description: SANGER: Inhibition of human A101D cell growth in a cell viability assay.
# TE-5 = type: functional, cell-based, Homo sapiens; conditions: Homo sapiens, TE-5;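 note: inhibition of cell growth, read out by a cell viability assay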
# Description: SANGER: Inhibition of human TE-5 cell growth in a cell viability assay.
# MZ1-PC = type: functional, cell-based, Homo sapiens; conditions: Homo sapiens, MZ1-PC;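 note: cell viability assay measuring growth inhibition of human MZ1-PC cells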
# Description: SANGER: Inhibition of human MZ1-PC cell growth in a cell viability assay.
# SHP77 = type: functional, cell-based, Homo sapiens, SHP-77; conditions: Homo sapiens, SHP77;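 note: growth inhibition of human SHP-77 cells measured by a cell viability assay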
# Description: SANGER: Inhibition of human SHP-77 cell growth in a cell viability assay.
# KP-N-YS = type: functional, cell-based, Homo sapiens; conditions: Homo sapiens, KP-N-YS;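 note: cell viability assay measuring inhibition of cell line growth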
# Description: SANGER: Inhibition of human KP-N-YS cell growth in a cell viability assay.
# LU-134-A = type: functional, cell-based, Homo sapiens; conditions: Homo sapiens, LU-134-A
# Description: SANGER: Inhibition of human LU-134-A cell growth in a cell viability assay.
# ML-2 = type: functional, cell-based, Homo sapiens; conditions: Homo sapiens, ML-2;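 note: growth inhibition of ML-2 cells, measured with a cell viability readout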
# Description: SANGER: Inhibition of human ML-2 cell growth in a cell viability assay.
# NCI-H1395 = type: functional, cell-based, Homo sapiens; conditions: Homo sapiens, NCI-H1395;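 note: cell viability assay read-out quantifying reduced proliferation of human NCI-H1395 cells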
# Description: SANGER: Inhibition of human NCI-H1395 cell growth in a cell viability assay.
# ES4 = type: functional, cell-based, Homo sapiens; conditions: Homo sapiens, ES4;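 note: growth inhibition of human ES4 cells, read out by a cell viability assay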
# Description: SANGER: Inhibition of human ES4 cell growth in a cell viability assay.
# KNS-81-FD = type: functional, cell-based, Homo sapiens; conditions: Homo sapiens, KNS-81-FD;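 note: growth inhibition of KNS-81-FD cells, read out with a cell viability assay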
# Description: SANGER: Inhibition of human KNS-81-FD cell growth in a cell viability assay.
# SK-N-FI = type: functional, cell-based, Homo sapiens; conditions: Homo sapiens, SK-N-FI;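 note: cell viability assay measuring growth inhibition of human SK-N-FI cells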
# Description: SANGER: Inhibition of human SK-N-FI cell growth in a cell viability assay.
# HCC2157 = type: functional, cell-based, Homo sapiens; conditions: Homo sapiens, HCC2157;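 note: growth inhibition of the cancer cell line, read out as cell viability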
# Description: SANGER: Inhibition of human HCC2157 cell growth in a cell viability assay.
# EW-16 = type: functional, cell-based, Homo sapiens; conditions: Homo sapiens, EW-16;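 note: growth inhibition of human EW-16 cells, read out as cell viability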
# Description: SANGER: Inhibition of human EW-16 cell growth in a cell viability assay.
# ONS-76 = type: functional, cell-based, Homo sapiens; conditions: Homo sapiens, ONS-76;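 note: growth inhibition of human ONS-76 cells, read out with a cell viability assay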
# Description: SANGER: Inhibition of human ONS-76 cell growth in a cell viability assay.
# HOP-62 = type: functional, cell-based, Homo sapiens; conditions: Homo sapiens, HOP-62;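 note: cell growth inhibition determined with a viability assay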
# Description: SANGER: Inhibition of human HOP-62 cell growth in a cell viability assay.
# KE-37 = type: functional, cell-based, Homo sapiens; conditions: Homo sapiens, KE-37;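 note: growth inhibition of KE-37 cells, read out with a cell viability assay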
# Description: SANGER: Inhibition of human KE-37 cell growth in a cell viability assay.
# LC-2-ad = type: functional, cell-based, Homo sapiens; conditions: Homo sapiens, LC-2-ad;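 note: growth inhibition of human LC-2-ad cells, read out with a cell viability assay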
# Description: SANGER: Inhibition of human LC-2-ad cell growth in a cell viability assay.
# NCI-H747 = type: functional, cell-based, Homo sapiens; conditions: Homo sapiens, NCI-H747;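 note: growth inhibition of human NCI-H747 cells, read out by a cell viability assay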
# Description: SANGER: Inhibition of human NCI-H747 cell growth in a cell viability assay.
# NCI-H209 = type: functional, cell-based, Homo sapiens; conditions: Homo sapiens, NCI-H209;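 note: growth inhibition of human NCI-H209 cells, measured by a cell viability assay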
# Description: SANGER: Inhibition of human NCI-H209 cell growth in a cell viability assay.
# MOLT-16 = type: functional, cell-based, Homo sapiens; conditions: Homo sapiens, MOLT-16;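 note: growth inhibition of human MOLT-16 cells, read out with a cell viability assay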
# Description: SANGER: Inhibition of human MOLT-16 cell growth in a cell viability assay.
# JVM-3 = type: functional, cell-based, Homo sapiens; conditions: Homo sapiens, JVM-3;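 note: growth inhibition of human JVM-3 cells, read out with a cell viability assay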
# Description: SANGER: Inhibition of human JVM-3 cell growth in a cell viability assay.
# LS-513 = type: functional, cell-based, Homo sapiens; conditions: Homo sapiens, LS-513
# Description: SANGER: Inhibition of human LS-513 cell growth in a cell viability assay.
# NOMO-1 = type: functional, cell-based, Homo sapiens; conditions: Homo sapiens, NOMO-1;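 note: growth inhibition of human NOMO-1 cells measured by a cell viability assay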
# Description: SANGER: Inhibition of human NOMO-1 cell growth in a cell viability assay.
# SNU1 = type: functional, cell-based, Homo sapiens; conditions: Homo sapiens, SNU1;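 note: growth inhibition of human NCI-SNU-1 cells, measured with a cell viability assay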
# Description: SANGER: Inhibition of human NCI-SNU-1 cell growth in a cell viability assay.
# RPMI-8866 = type: functional, cell-based, Homo sapiens; conditions: Homo sapiens, RPMI-8866
# Description: SANGER: Inhibition of human RPMI-8866 cell growth in a cell viability assay.
# LAN-6 = type: functional, cell-based, Homo sapiens; conditions: Homo sapiens, LAN-6;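 note: growth inhibition of LAN-6 cells, determined with a cell viability assay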
# Description: SANGER: Inhibition of human LAN-6 cell growth in a cell viability assay.
# CAS-1 = type: functional, cell-based, Homo sapiens; conditions: Homo sapiens, CAS-1;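 note: growth inhibition of CAS-1 cells, measured with a cell viability assay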
# Description: SANGER: Inhibition of human CAS-1 cell growth in a cell viability assay.
# CCRF-CEM = type: functional, cell-based, Homo sapiens; conditions: Homo sapiens, CCRF-CEM;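 note: inhibition of CCRF-CEM cell growth, measured by a cell viability assay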
# Description: SANGER: Inhibition of human CCRF-CEM cell growth in a cell viability assay.
# RKO = type: functional, cell-based, Homo sapiens; conditions: Homo sapiens, RKO;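 note: growth inhibition of human RKO cells, read out with a cell viability assay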
# Description: SANGER: Inhibition of human RKO cell growth in a cell viability assay.
# AM-38 = type: functional, cell-based, Homo sapiens; conditions: Homo sapiens, AM-38;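 note: growth inhibition of AM-38 cells of human origin, read out by a cell viability assay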
# Description: SANGER: Inhibition of human AM-38 cell growth in a cell viability assay.
# LNCaP-Clone-FGC = type: functional, cell-based, Homo sapiens; conditions: Homo sapiens, LNCaP-Clone-FGC
# Description: SANGER: Inhibition of human LNCaP-Clone-FGC cell growth in a cell viability assay.
# EW-13 = type: functional, cell-based, Homo sapiens; conditions: Homo sapiens, EW-13; read-out: IC50;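 note: growth inhibition of EW-13 cells, read out with a cell viability assay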
# Description: SANGER: Inhibition of human EW-13 cell growth in a cell viability assay.
# C8166 = type: functional, cell-based, Homo sapiens; conditions: Homo sapiens, C8166;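 note: growth inhibition of human C8166 cells measured by a cell viability assay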
# Description: SANGER: Inhibition of human C8166 cell growth in a cell viability assay.
smiles,measurement,setting,value
CCCCCCCCCCCC1=C(O)C(=O)C=C(O)C1=O [EMBELIN],IC50,IST-MEL1,7900 nM
same,IC50,LB996-RCC,14100 nM
same,IC50,U-87 MG,> 32000 nM
same,IC50,BB30-HNC,5060 nM
same,IC50,KARPAS-299,> 32000 nM
same,IC50,LB831-BLC,12600 nM
same,IC50,LB771-HNC,> 32000 nM
same,IC50,MSTO-211H,> 32000 nM
same,IC50,RH-1,13300 nM
same,IC50,Becker,15800 nM
same,IC50,ACN,5860 nM
same,IC50,LAMA-84,18500 nM
same,IC50,SCH,> 32000 nM
same,IC50,KALS-1,14900 nM
same,IC50,ES1,7810 nM
same,IC50,A101D,6370 nM
same,IC50,TE-5,9420 nM
same,IC50,MZ1-PC,5710 nM
same,IC50,SHP77,> 32000 nM
same,IC50,KP-N-YS,> 32000 nM
same,IC50,LU-134-A,> 32000 nM
same,IC50,ML-2,12400 nM
same,IC50,NCI-H1395,> 32000 nM
same,IC50,ES4,4520 nM
same,IC50,KNS-81-FD,19500 nM
same,IC50,SK-N-FI,> 32000 nM
same,IC50,HCC2157,> 32000 nM
same,IC50,EW-16,4270 nM
same,IC50,ONS-76,8450 nM
same,IC50,HOP-62,5690 nM
same,IC50,KE-37,3440 nM
same,IC50,LC-2-ad,12900 nM
same,IC50,NCI-H747,14300 nM
same,IC50,NCI-H209,> 32000 nM
same,IC50,MOLT-16,11900 nM
same,IC50,JVM-3,> 32000 nM
same,IC50,LS-513,> 32000 nM
same,IC50,NOMO-1,12300 nM
same,IC50,SNU1,> 32000 nM
same,IC50,RPMI-8866,8100 nM
same,IC50,LAN-6,> 32000 nM
same,IC50,CAS-1,15300 nM
same,IC50,CCRF-CEM,3020 nM
same,IC50,RKO,2010 nM
same,IC50,AM-38,12500 nM
same,IC50,LNCaP-Clone-FGC,21900 nM
same,IC50,EW-13,9670 nM
same,IC50,C8166,7640 nM
Nc1ccccc1NC(=O)c1ccc(CNC(=O)OCc2cccnc2)cc1 [ENTINOSTAT],IC50,IST-MEL1,1180 nM
same,IC50,LB996-RCC,1470 nM
same,IC50,U-87 MG,3040 nM
same,IC50,BB30-HNC,1390 nM
same,IC50,KARPAS-299,585 nM
same,IC50,LB831-BLC,1840 nM
same,IC50,LB771-HNC,> 5000 nM
same,IC50,MSTO-211H,1480 nM
same,IC50,RH-1,> 5000 nM
same,IC50,Becker,4370 nM
same,IC50,ACN,510 nM
same,IC50,LAMA-84,776 nM
same,IC50,SCH,403 nM
same,IC50,KALS-1,705 nM
same,IC50,ES1,113 nM
same,IC50,A101D,403 nM
same,IC50,TE-5,3210 nM
same,IC50,MZ1-PC,3620 nM
same,IC50,SHP77,4010 nM
same,IC50,KP-N-YS,> 5000 nM
same,IC50,LU-134-A,571 nM
same,IC50,ML-2,2330 nM
same,IC50,NCI-H1395,> 5000 nM
same,IC50,ES4,859 nM
same,IC50,KNS-81-FD,> 5000 nM
same,IC50,SK-N-FI,3450 nM
same,IC50,HCC2157,1430 nM
same,IC50,EW-16,1930 nM
same,IC50,ONS-76,582 nM
same,IC50,HOP-62,484 nM
same,IC50,KE-37,643 nM
same,IC50,LC-2-ad,537 nM
same,IC50,NCI-H747,3050 nM
same,IC50,NCI-H209,406 nM
same,IC50,MOLT-16,410 nM
same,IC50,JVM-3,> 5000 nM
same,IC50,LS-513,445 nM
same,IC50,NOMO-1,811 nM
same,IC50,SNU1,> 5000 nM
same,IC50,RPMI-8866,1600 nM
same,IC50,LAN-6,2020 nM
same,IC50,CAS-1,> 5000 nM
same,IC50,CCRF-CEM,747 nM
same,IC50,RKO,3770 nM
same,IC50,AM-38,> 5000 nM
same,IC50,LNCaP-Clone-FGC,> 5000 nM
same,IC50,EW-13,> 5000 nM
same,IC50,C8166,> 5000 nM
C/C(=C\c1csc(C)n1)[C@@H]1C[C@@H]2O[C@]2(C)CCC[C@H](C)[C@H](O)[C@@H](C)C(=O)C(C)(C)[C@@H](O)CC(=O)O1 [PATUPILONE],IC50,IST-MEL1,4.06 nM
same,IC50,LB996-RCC,6.03 nM
same,IC50,U-87 MG,21.8 nM
same,IC50,BB30-HNC,0.201 nM
same,IC50,KARPAS-299,> 32 nM
same,IC50,LB831-BLC,6.03 nM
same,IC50,LB771-HNC,8.46 nM
same,IC50,MSTO-211H,> 32 nM
same,IC50,RH-1,0.997 nM
same,IC50,Becker,2.86 nM
same,IC50,ACN,1.07 nM
same,IC50,LAMA-84,18.9 nM
same,IC50,SCH,> 32 nM
same,IC50,KALS-1,3.19 nM
same,IC50,ES1,0.221 nM
same,IC50,A101D,0.856 nM
same,IC50,TE-5,3.04 nM
same,IC50,MZ1-PC,0.607 nM
same,IC50,SHP77,4.92 nM
same,IC50,KP-N-YS,3.93 nM
same,IC50,LU-134-A,15.8 nM
same,IC50,ML-2,2.46 nM
same,IC50,NCI-H1395,> 32 nM
same,IC50,ES4,0.739 nM
same,IC50,KNS-81-FD,> 32 nM
same,IC50,SK-N-FI,> 32 nM
same,IC50,HCC2157,1.28 nM
same,IC50,EW-16,1.06 nM
same,IC50,ONS-76,4.1 nM
same,IC50,HOP-62,1.04 nM
same,IC50,KE-37,1.91 nM
same,IC50,LC-2-ad,< 0.125 nM
same,IC50,NCI-H747,2.54 nM
same,IC50,NCI-H209,20.9 nM
same,IC50,MOLT-16,3.41 nM
same,IC50,JVM-3,> 32 nM
same,IC50,LS-513,> 32 nM
same,IC50,NOMO-1,8.55 nM
same,IC50,SNU1,> 32 nM
same,IC50,RPMI-8866,19.8 nM
same,IC50,LAN-6,> 32 nM
same,IC50,CAS-1,24.5 nM
same,IC50,CCRF-CEM,2.94 nM
same,IC50,RKO,0.0647 nM
same,IC50,AM-38,7.56 nM
same,IC50,LNCaP-Clone-FGC,4.26 nM
same,IC50,EW-13,0.903 nM
same,IC50,C8166,31.7 nM
Cc1ccc(C(=O)Nc2ccc(CN3CCN(C)CC3)c(C(F)(F)F)c2)cc1C#Cc1cnc2cccnn12 [PONATINIB],IC50,IST-MEL1,> 512 nM
same,IC50,LB996-RCC,> 512 nM
same,IC50,U-87 MG,> 512 nM
same,IC50,BB30-HNC,> 512 nM
same,IC50,KARPAS-299,> 512 nM
same,IC50,LB831-BLC,> 512 nM
same,IC50,LB771-HNC,> 512 nM
same,IC50,MSTO-211H,> 512 nM
same,IC50,RH-1,> 512 nM
same,IC50,Becker,> 512 nM
same,IC50,ACN,349 nM
same,IC50,LAMA-84,< 2 nM
same,IC50,SCH,> 512 nM
same,IC50,KALS-1,> 512 nM
same,IC50,ES1,> 512 nM
same,IC50,A101D,> 512 nM
same,IC50,TE-5,> 512 nM
same,IC50,MZ1-PC,113 nM
same,IC50,SHP77,> 512 nM
same,IC50,KP-N-YS,> 512 nM
same,IC50,LU-134-A,> 512 nM
same,IC50,ML-2,> 512 nM
same,IC50,NCI-H1395,> 512 nM
same,IC50,ES4,> 512 nM
same,IC50,KNS-81-FD,> 512 nM
same,IC50,SK-N-FI,> 512 nM
same,IC50,HCC2157,> 512 nM
same,IC50,EW-16,> 512 nM
same,IC50,ONS-76,> 512 nM
same,IC50,HOP-62,361 nM
same,IC50,KE-37,> 512 nM
same,IC50,LC-2-ad,243 nM
same,IC50,NCI-H747,421 nM
same,IC50,NCI-H209,> 512 nM
same,IC50,MOLT-16,> 512 nM
same,IC50,JVM-3,> 512 nM
same,IC50,LS-513,> 512 nM
same,IC50,NOMO-1,> 512 nM
same,IC50,SNU1,> 512 nM
same,IC50,RPMI-8866,> 512 nM
same,IC50,LAN-6,> 512 nM
same,IC50,CAS-1,283 nM
same,IC50,CCRF-CEM,> 512 nM
same,IC50,RKO,> 512 nM
same,IC50,AM-38,> 512 nM
same,IC50,LNCaP-Clone-FGC,> 512 nM
same,IC50,EW-13,> 512 nM
same,IC50,C8166,> 512 nM
